Experiments:
p56^Ick tyrosine kinase = target: T1, p56^Ick tyrosine kinase (Homo sapiens, UniProt P06239); experiment: Ick kinase cell-free assay (immunoprecipitated from Jurkat lysate); type: biochemical
T1 construct: samples containing Ick immuno-precipitated from 2×10^6 cells; endogenous in cells; host or cells: Jurkat (human T-cell leukemia, ATCC clone E6-1)
Method: Ick Kinase: Immunoprecipitated from Jurkat Lysate
B. Cells are grown to 1-1.5×10^6 cells/ml media, pelleted by centrifugation, and lysed in lysis buffer at 10^8 cells/ml buffer (50 mM tris (pH 8), 150 mM NaCl, 5 mM EDTA, 10% glycerol, and 1% NP-40, to which fresh protease and phosphatase inhibitors are added as described above for A431 lysate). Lysates stored at −70° C.
C. Immunoprecipitation: 3-4 mg Protein-A sepharose/sample washed 2×20 mM Hepes (pH 7.5). 1 ul α-Ick antibody (prepared as polyclonals in rabbits using a peptide antigen corresponding to the N-terminal region of human Ick) per sample added to the Protein-A and shaken 20 min at room temperature. After washing 3× HNTG, lysate from 2×10^6 cells is added to each sample, rotated 2 hr at 4° C., then washed 3× HNTG (2nd wash containing 0.5 N NaCl). If all samples contain identical concentrations of the enzyme, then the immuno-precipitation can be done in bulk and alloquoted to appropriate numbers of tubes prior to assay set-up.
Samples are analyzed by 5-15% SDS-PAGE and autoradiography as described for EGFR kinase assays.

CSF-1R tyrosine kinase = target: T2, CSF-1R tyrosine kinase (Homo sapiens, UniProt P07333); experiment: CSF-1R cell-free autophosphorylation assay; type: biochemical
T2 construct: host or cells: unnamed cell lysate ('stimulated lysate')
Method: CSF-1R Cell-free Autophosphorylation Assay
For a regular 28 tube assay (14 samples per 15 well gel):
In 2 ml eppendorf tube: 140 mg protein A sepharose (5 mg/sample)
Swell in 20 mM Hepes pH 7.5 and wash 2× in Hepes
In 15 ml tube: 2.8 ml lysate lysis buffer: 20 mM Hepes
Protease inhibitors added fresh:
PMSF: 8 mg/ml=[…] in 100% EtOH, store frozen, add 100 λ/10 ml lysis buffer Aprotinin: 10 mg/ml=250× in H2O, store frozen, add 40 λ/10 ml lysis buffer Leupeptin: 1 mg/ml=250× in H2O, store frozen, add 40 λ/10 ml lysis buffer Add washed beads to stimulated lysate and incubate 90 min 4° C. on rotator or shaking prepare 28 compound tubes: make 40 mM solutions of compounds in 100% DMSO make serial dilutions in 50 mM Tris pH 7.5+10 mM MnCl2 aliquot 10λ compound solution into each 1 ml eppendorf reaction tube waiting on ice, control blanks get 10λ buffer Wash beads 1×HNTG, 2×10 mM Tris pH 7.5
2.7λ cold ATP (stock of 10 mM in 50 mM
Vortex, incubate 10 min on ice
Add 45λ 2×SDS-sample buffer, heat 95° C. 6 min
7.5% SDS-PAGE, fix, dry, expose (usually 4 hrs)

T1 sequence (P06239 whole entry): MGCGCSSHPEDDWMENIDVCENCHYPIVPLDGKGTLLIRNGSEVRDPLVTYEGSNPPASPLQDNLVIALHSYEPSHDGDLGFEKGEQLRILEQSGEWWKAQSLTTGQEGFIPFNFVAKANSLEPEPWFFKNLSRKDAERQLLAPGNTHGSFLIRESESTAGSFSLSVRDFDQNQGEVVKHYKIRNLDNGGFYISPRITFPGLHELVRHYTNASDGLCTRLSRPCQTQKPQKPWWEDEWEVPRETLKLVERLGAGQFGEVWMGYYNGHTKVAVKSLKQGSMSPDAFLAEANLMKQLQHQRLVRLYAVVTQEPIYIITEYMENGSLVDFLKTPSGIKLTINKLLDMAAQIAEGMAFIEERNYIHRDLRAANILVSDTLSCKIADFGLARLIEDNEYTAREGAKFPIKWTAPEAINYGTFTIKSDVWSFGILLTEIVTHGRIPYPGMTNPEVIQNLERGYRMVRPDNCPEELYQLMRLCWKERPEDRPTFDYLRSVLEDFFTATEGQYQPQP
T2 sequence (P07333 20-972): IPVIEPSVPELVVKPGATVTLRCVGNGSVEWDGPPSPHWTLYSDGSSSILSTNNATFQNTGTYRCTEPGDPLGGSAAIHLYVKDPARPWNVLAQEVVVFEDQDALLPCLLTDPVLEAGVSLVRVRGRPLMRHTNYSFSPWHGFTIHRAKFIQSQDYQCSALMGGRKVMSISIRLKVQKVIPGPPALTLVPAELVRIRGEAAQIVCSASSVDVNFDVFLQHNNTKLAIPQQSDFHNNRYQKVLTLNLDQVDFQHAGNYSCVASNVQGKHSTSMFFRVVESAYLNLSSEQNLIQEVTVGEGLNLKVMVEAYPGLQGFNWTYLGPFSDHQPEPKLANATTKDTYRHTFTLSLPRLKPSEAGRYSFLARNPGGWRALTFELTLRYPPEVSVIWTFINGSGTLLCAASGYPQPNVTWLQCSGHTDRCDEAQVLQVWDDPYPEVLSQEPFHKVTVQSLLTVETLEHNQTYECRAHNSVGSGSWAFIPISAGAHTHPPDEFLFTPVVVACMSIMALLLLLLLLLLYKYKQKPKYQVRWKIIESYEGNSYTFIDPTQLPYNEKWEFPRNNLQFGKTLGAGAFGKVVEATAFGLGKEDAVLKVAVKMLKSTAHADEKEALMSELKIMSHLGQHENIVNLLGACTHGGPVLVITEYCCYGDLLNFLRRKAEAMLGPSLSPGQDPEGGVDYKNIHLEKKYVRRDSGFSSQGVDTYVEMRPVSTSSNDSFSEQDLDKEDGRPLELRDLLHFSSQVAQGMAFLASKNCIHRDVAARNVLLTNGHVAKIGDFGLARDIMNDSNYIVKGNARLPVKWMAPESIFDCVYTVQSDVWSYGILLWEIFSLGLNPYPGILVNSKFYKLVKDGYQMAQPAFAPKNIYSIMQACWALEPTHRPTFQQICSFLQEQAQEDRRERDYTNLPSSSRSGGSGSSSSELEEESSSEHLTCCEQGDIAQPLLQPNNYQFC

Compound: COc1cc2ncnc(-c3ccsc3)c2cc1OC
- IC50 (p56^Ick tyrosine kinase): > 10 µM
- IC50 (CSF-1R tyrosine kinase): 6 µM

Compound: COc1cc2ncnc(N(C)c3ccccc3)c2cc1OC
- IC50 (p56^Ick tyrosine kinase): > 50 µM
- IC50 (CSF-1R tyrosine kinase): 0.5 µM

Compound: CCN(c1ccccc1)c1ncnc2cc(OC)c(OC)cc12
- IC50 (p56^Ick tyrosine kinase): > 50 µM
- IC50 (CSF-1R tyrosine kinase): 4 µM

Compound: COc1cc(Nc2ncnc3cc(OC)c(OC)cc23)cc(OC)c1
- IC50 (CSF-1R tyrosine kinase): > 100 µM

Compound: COc1cc2ncnc(Nc3cc(OC)c(OC)c(OC)c3)c2cc1OC
- IC50 (CSF-1R tyrosine kinase): > 100 µM

Compound: COc1cc2ncnc(NC3CCCCC3)c2cc1OC
- IC50 (CSF-1R tyrosine kinase): > 50 µM

Compound: COc1cc2ncnc(Nc3ccc4ccccc4c3)c2cc1OC
- IC50 (CSF-1R tyrosine kinase): > 50 µM

Compound: COc1cc2ncnc(Nc3cccc4ccccc34)c2cc1OC
- IC50 (p56^Ick tyrosine kinase): 2.5 µM
- IC50 (CSF-1R tyrosine kinase): > 50 µM

Compound: COc1ccc(Nc2ncnc3cc(OC)c(OC)cc23)cc1OC
- IC50 (CSF-1R tyrosine kinase): > 20 µM

Compound: COc1cc2ncnc(NCc3ccccc3)c2cc1OC
- IC50 (p56^Ick tyrosine kinase): 20 µM
- IC50 (CSF-1R tyrosine kinase): ≥ 20 µM

Compound: COc1cc2ncnc(Sc3cccc(Cl)c3)c2cc1OC
- IC50 (p56^Ick tyrosine kinase): 2.5 µM
- IC50 (CSF-1R tyrosine kinase): 3 µM

Compound: COc1cccc(Sc2ncnc3cc(OC)c(OC)cc23)c1
- IC50 (p56^Ick tyrosine kinase): 5 µM
- IC50 (CSF-1R tyrosine kinase): 1 µM

Compound: COc1cc2ncnc(Oc3cc(OC)c(OC)c(OC)c3)c2cc1OC
- IC50 (p56^Ick tyrosine kinase): 5 µM
- IC50 (CSF-1R tyrosine kinase): > 50 µM

Compound: COc1cc2ncnc(-c3cccc(-c4ccccc4)c3)c2cc1OC
- IC50 (p56^Ick tyrosine kinase): 2.9 µM
- IC50 (CSF-1R tyrosine kinase): 15 µM

Compound: COc1cc2ncnc(Oc3cccc(Cl)c3)c2cc1OC [Example 1, 4-(3-Chlorophenoxy)-6,7-dimethoxyquinazoline]
- melting point: 152 to 153 °C

Compound: COc1cc2ncnc(Oc3cccc(Cl)c3)c2cc1OC [drawing 19]
- IC50 (p56^Ick tyrosine kinase): 1 µM
- IC50 (CSF-1R tyrosine kinase): > 50 µM

Source: patent US6645969B1, “Aryl and heteroaryl quinazoline compounds which inhibit CSF-1R receptor tyrosine kinase” (Aventis Pharmaceuticals Inc., priority 1991, dated 2003)
